Test results published in ChEMBL document CHEMBL3352414, “Structure based inhibitor design targeting glycogen phosphorylase B. Virtual screening, synthesis, biochemical and biological assessment of novel N-acyl-β-d-glucopyranosylamines” (Bioorg Med Chem, 2014).

Columns and labels:
[1] = target: T1, Glycogen phosphorylase, muscle form (Oryctolagus cuniculus, UniProt P00489); test: Inhibition of rabbit skeletal muscle glycogen phosphorylase b assessed as inorganic phosphate release
T1 sequence (P00489 whole entry): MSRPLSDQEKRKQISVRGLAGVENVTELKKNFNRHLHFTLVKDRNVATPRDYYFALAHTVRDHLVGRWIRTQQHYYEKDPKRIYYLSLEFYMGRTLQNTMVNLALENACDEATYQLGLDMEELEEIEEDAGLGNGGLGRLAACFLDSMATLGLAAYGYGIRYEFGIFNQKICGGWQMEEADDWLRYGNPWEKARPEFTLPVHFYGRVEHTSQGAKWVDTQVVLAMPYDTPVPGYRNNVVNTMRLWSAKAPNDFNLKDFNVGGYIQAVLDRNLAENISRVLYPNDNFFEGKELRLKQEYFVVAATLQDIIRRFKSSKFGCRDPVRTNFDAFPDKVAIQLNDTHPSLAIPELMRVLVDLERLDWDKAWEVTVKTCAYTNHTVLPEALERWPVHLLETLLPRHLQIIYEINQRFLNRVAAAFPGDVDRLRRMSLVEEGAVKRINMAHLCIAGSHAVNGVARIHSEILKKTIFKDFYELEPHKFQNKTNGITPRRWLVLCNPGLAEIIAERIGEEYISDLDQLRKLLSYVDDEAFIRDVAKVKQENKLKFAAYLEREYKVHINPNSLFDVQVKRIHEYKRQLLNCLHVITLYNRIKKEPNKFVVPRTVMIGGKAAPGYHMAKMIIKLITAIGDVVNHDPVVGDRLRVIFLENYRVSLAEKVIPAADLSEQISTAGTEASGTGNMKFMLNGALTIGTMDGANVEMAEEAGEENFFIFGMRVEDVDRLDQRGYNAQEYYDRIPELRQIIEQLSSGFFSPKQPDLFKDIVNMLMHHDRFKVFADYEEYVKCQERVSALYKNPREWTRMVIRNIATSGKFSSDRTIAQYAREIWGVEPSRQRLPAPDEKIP

[2] = Permeability in human Caco2 cells; format: ADME, cell-based; details: Caco-2, read-out: permeability
[3] = Octanol water partition coefficient, logP of the compound; format: physicochemical

SMILES	Ki ([1]; read-out: Ki) [µM]	Papp [2] [×10⁻⁶ cm/s]	logP [3]	Ki [1]
COC(=O)C(=O)N[C@@H]1O[C@H](CO)[C@@H](O)[C@H](O)[C@H]1O	210			
O=C(Cc1ccccc1)NC(=O)N[C@@H]1O[C@H](CO)[C@@H](O)[C@H](O)[C@H]1O	600			
C[C@H](CC(=O)N[C@@H]1O[C@H](CO)[C@@H](O)[C@H](O)[C@H]1O)c1ccc(C(C)(C)C)cc1		9.77	0.33	
CC[C@H](CC(=O)N[C@@H]1O[C@H](CO)[C@@H](O)[C@H](O)[C@H]1O)c1ccc(C)c(C)c1		7.67	0.01	
O=C(NC1CC1)C(=O)N[C@@H]1O[C@H](CO)[C@@H](O)[C@H](O)[C@H]1O	1410			
O=C(N[C@@H]1O[C@H](CO)[C@@H](O)[C@H](O)[C@H]1O)[C@H](O)[C@@H](O)[C@@H](O)[C@H](O)CO	225			
CC(C)(C(=O)N[C@@H]1O[C@H](CO)[C@@H](O)[C@H](O)[C@H]1O)c1cccc2ccccc12		14.7	0.085	
COC(=O)CCCC(=O)N[C@@H]1O[C@H](CO)[C@@H](O)[C@H](O)[C@H]1O	83			
COC(=O)c1ccc(/C=C/C(=O)N[C@@H]2O[C@H](CO)[C@@H](O)[C@H](O)[C@H]2O)cc1		2.63	-0.805	
COC(=O)c1cccc(C(=O)N[C@@H]2O[C@H](CO)[C@@H](O)[C@H](O)[C@H]2O)c1	580			
O=C(Nc1ccccc1)N[C@@H]1O[C@H](CO)[C@@H](O)[C@H](O)[C@H]1O	18			
O=C(CCNC(=O)c1ccc(F)c(F)c1)N[C@@H]1O[C@H](CO)[C@@H](O)[C@H](O)[C@H]1O		3.14	-0.807	
CC(C)c1ccc([C@@H](C)CC(=O)N[C@@H]2O[C@H](CO)[C@@H](O)[C@H](O)[C@H]2O)cc1		7.87	0.075	
COc1ccc(/C=C/C(=O)N[C@@H]2O[C@H](CO)[C@@H](O)[C@H](O)[C@H]2O)c(O)c1		3.89	-0.958	
COc1cc(/C=C/C(=O)N[C@@H]2O[C@H](CO)[C@@H](O)[C@H](O)[C@H]2O)cc(OC)c1		8	-0.36	
O=C(NC(=O)c1ccc(C(F)(F)F)cc1)N[C@@H]1O[C@H](CO)[C@@H](O)[C@H](O)[C@H]1O	1.8			
Cc1ccccc1[C@H](Cc1ccco1)C(=O)N[C@@H]1O[C@H](CO)[C@@H](O)[C@H](O)[C@H]1O		12.2	0.004	
O=C(N[C@@H]1O[C@H](CO)[C@@H](O)[C@H](O)[C@H]1O)C(c1ccccc1)c1ccccc1				Not Active
O=C(N[C@@H]1O[C@H](CO)[C@@H](O)[C@H](O)[C@H]1O)C1=Cc2cc(Cl)ccc2OC1		9.4	-0.169	
C[C@@H]1C[C@@]1(C(=O)N[C@@H]1O[C@H](CO)[C@@H](O)[C@H](O)[C@H]1O)c1cccc2ccccc12		14.5	0.255	
O=C(N[C@@H]1O[C@H](CO)[C@@H](O)[C@H](O)[C@H]1O)C1CCCCC1	289			
O=C(/C=C/c1ccc2ccccc2c1)N[C@@H]1O[C@H](CO)[C@@H](O)[C@H](O)[C@H]1O	3.5			
CC(C)(Oc1ccc2ccccc2c1)C(=O)N[C@@H]1O[C@H](CO)[C@@H](O)[C@H](O)[C@H]1O		10.6	0.037	
CC(C)(C)c1ccc(C(=O)NC(=O)N[C@@H]2O[C@H](CO)[C@@H](O)[C@H](O)[C@H]2O)cc1	0.7			
O=C(Cn1cc(-c2ccccc2)nn1)N[C@@H]1O[C@H](CO)[C@@H](O)[C@H](O)[C@H]1O	180			
O=C(N[C@@H]1O[C@H](CO)[C@@H](O)[C@H](O)[C@H]1O)C(F)(F)F	81			
O=C(C#Cc1ccccc1)N[C@@H]1O[C@H](CO)[C@@H](O)[C@H](O)[C@H]1O	61			
CC(C)N(C(=O)C(=O)N[C@@H]1O[C@H](CO)[C@@H](O)[C@H](O)[C@H]1O)C(C)C				Not Active

SMILES	Ki ([1]; read-out: Ki) [µM]	Papp [2] [×10⁻⁶ cm/s]	logP [3]	Ki [1]
O=C(/C=C/c1ccccc1)N[C@@H]1O[C@H](CO)[C@@H](O)[C@H](O)[C@H]1O	18			
CC(=O)N[C@@H]1O[C@H](CO)[C@@H](O)[C@H](O)[C@H]1O	32			
O=C(N[C@@H]1O[C@H](CO)[C@@H](O)[C@H](O)[C@H]1O)c1cccc2ccccc12	10			
COC(=O)c1ccc(C(=O)N[C@@H]2O[C@H](CO)[C@@H](O)[C@H](O)[C@H]2O)cc1	329			
O=C(N[C@@H]1O[C@H](CO)[C@@H](O)[C@H](O)[C@H]1O)c1ccccc1	81			
O=C(Nc1ccc2ccccc2c1)C(=O)N[C@@H]1O[C@H](CO)[C@@H](O)[C@H](O)[C@H]1O	56			
O=C(CCc1ncc(-c2ccccc2)o1)N[C@@H]1O[C@H](CO)[C@@H](O)[C@H](O)[C@H]1O		3.65	-0.915	
O=C(O)C(=O)N[C@@H]1O[C@H](CO)[C@@H](O)[C@H](O)[C@H]1O	710			
O=C(C[C@H]1CC(=O)c2c(F)cc(F)cc21)N[C@@H]1O[C@H](CO)[C@@H](O)[C@H](O)[C@H]1O		3.17	-1.21	
CCc1ccc(/C=C/C(=O)N[C@@H]2O[C@H](CO)[C@@H](O)[C@H](O)[C@H]2O)cc1		9.47	0.04	
O=C(Nc1ccccn1)C(=O)N[C@@H]1O[C@H](CO)[C@@H](O)[C@H](O)[C@H]1O	230			
O=C(CCc1ccccc1)N[C@@H]1O[C@H](CO)[C@@H](O)[C@H](O)[C@H]1O	85			
Cc1ccc2c(c1)C=C(C(=O)N[C@@H]1O[C@H](CO)[C@@H](O)[C@H](O)[C@H]1O)C(=O)C2		3.62	-0.451	
C[C@@H](Cc1ccc(C(C)(C)C)cc1)C(=O)N[C@@H]1O[C@H](CO)[C@@H](O)[C@H](O)[C@H]1O		10	0.379	
O=C1Cc2ccc(Cl)cc2C=C1C(=O)N[C@@H]1O[C@H](CO)[C@@H](O)[C@H](O)[C@H]1O		3.85	-0.221	
O=C(NC(=O)c1cc2ccccc2[nH]1)N[C@@H]1O[C@H](CO)[C@@H](O)[C@H](O)[C@H]1O	4			
CCOC(=O)C(=O)N[C@@H]1O[C@H](CO)[C@@H](O)[C@H](O)[C@H]1O	920			
O=C(Nc1ccccc1)C(=O)N[C@@H]1O[C@H](CO)[C@@H](O)[C@H](O)[C@H]1O	100			
O=C(C[C@H](c1ccc(Cl)cc1)C1CC1)N[C@@H]1O[C@H](CO)[C@@H](O)[C@H](O)[C@H]1O		6.97	0.083	
O=C(NC(=O)c1ccccn1)N[C@@H]1O[C@H](CO)[C@@H](O)[C@H](O)[C@H]1O	68			
N[C@H](Cc1c[nH]c2ccccc12)C(=O)N[C@@H]1O[C@H](CO)[C@@H](O)[C@H](O)[C@H]1O		0.47	-2.09	
Cc1ccc(-c2cnc(CCC(=O)N[C@@H]3O[C@H](CO)[C@@H](O)[C@H](O)[C@H]3O)o2)cc1		5.4	-0.574	
O=C(Nc1ccc2ccccc2c1)N[C@@H]1O[C@H](CO)[C@@H](O)[C@H](O)[C@H]1O	5.2			
N[C@@H](Cc1c[nH]c2ccccc12)C(=O)N[C@@H]1O[C@H](CO)[C@@H](O)[C@H](O)[C@H]1O		0.4	-2.1	
O=C(N[C@@H]1O[C@H](CO)[C@@H](O)[C@H](O)[C@H]1O)[C@H](O)[C@@H](O)[C@H](O)[C@H](O)CO	341			
COC(=O)CCC(=O)N[C@@H]1O[C@H](CO)[C@@H](O)[C@H](O)[C@H]1O	170			
O=C(Nc1cccc2ccccc12)C(=O)N[C@@H]1O[C@H](CO)[C@@H](O)[C@H](O)[C@H]1O	144			
